Columns and labels:
cMET = cMET (Homo sapiens, UniProt P08581); assay: Evaluation of inhibitory activity against MET (TR-FRET); format: biochemical; conditions: TR-FRET kinase assay, cMET protein
Procedure: In addition, in order to measure the enzyme activity inhibition for cMET, the evaluation was performed in the same manner as the enzyme activity inhibition measurement experiment for the RON.
(§1) Specifically, the compound was prepared to a concentration of 1 mM with 100% DMSO and was diluted 10 times in a stepwise manner through 3-fold dilution. 2 ul of the compound diluted in a stepwise manner was added to a 96-well-plate containing 48 ul of a 1× kinase reaction buffer (50 mM HEPES (pH 7.4), 0.05% BSA, 0.005% Tween-20, 1 mM DTT, 0.5 mM MnCl2, 20 mM MgCl2).
The cMET protein was diluted to a concentration of 263 nM with a cMET storage buffer (50 mM Tris-HCl (pH 7.5), 150 mM NaCl, 0.05% Brij35, 1 mM DTT, 10% Glycerol), and then diluted again to a concentration of 2 nM with a 1× kinase reaction buffer. As a substrate cocktail, a MET-specific substrate mixture (5 uM TK peptide, […]) at a concentration 2 times the final reaction concentration.
(§2) Thereafter, a 384-well-plate was prepared, and 2.5 μl of each of the diluted compounds of Examples was added to a corresponding well of experimental group wells, and 2.5 μl of a 4% DMSO solution was dispensed into high control wells and low control wells.
(§3) Thereafter, 2.5 μL of 2 nM cMET was dispensed into the high control wells and the experimental group wells, and 2.5 μL of a 1× kinase reaction buffer was added to the low control wells, and the RON and the reaction buffer were centrifuged at room temperature for 40 seconds at 1000 RPM, and then incubated at room temperature for 20 to 30 minutes. Then, 5 uL of a substrate cocktail (2×) was dispensed into all wells, centrifuged at room temperature for 40 seconds at 1000 RPM, and then incubated at room temperature for 60 minutes. Thereafter, 5 uL of 90 mM EDTA was added to all wells to terminate the reaction, and then incubated again at room temperature for 5 minutes. Thereafter, 5 uL of a 4× phosphotyrosine antibody (Perkin Elmer) containing europium was added to all wells, and then incubated at room temperature for 60 minutes. After the incubation, the 384-well-plate was read with a Vison plate reader. At this time, the excitation wavelength was 340 nm, and the emission wavelength was 620 nm and 665 nm. The 1050 value of the compound of each Example was derived using the GraphPd Prism7 program.

RON = RON (Homo sapiens, UniProt Q04912); assay: Evaluation of inhibitory activity against RON (TR-FRET); format: biochemical; conditions: TR-FRET kinase assay, RON protein
Procedure: In order to measure the inhibitory activity of each of the compounds of Examples against RON, the IC50 of each of the compounds was measured using a Time-Resolved Fluorescence Energy Transfer Chemistry (TR-FRET).
as §1, with “a 1×kinase” for “a 1× kinase”, “7.4), 0.01%” for “7.4), 0.05% BSA, 0.005%”, “Tween-20, 5” for “Tween-20, 1”, “mM Na3VO4, 2 mM EGTA, 10” for “mM MnCl2, 20”
The RON protein was diluted to a concentration of 49.3 nM with an RON storage buffer (50 mM Tris-HCl (pH 7.5), 150 mM NaCl, 0.5 mM EDTA, 0.02% Triton X-100), and then diluted again to a concentration of 0.4 nM with a 1×kinase reaction buffer. As a substrate cocktail, a RON-specific substrate mixture (40 uM ULight-labeled Poly GT, 100 nM ATP) at a concentration 2 times the final reaction concentration.
as §2
as §3, with “of 0.4” for “of 2”, “nM RON” for “nM cMET”, “of 30” for “of 90”, “The IC50” for “The 1050”

Chain of cMET (P08581 25-1390): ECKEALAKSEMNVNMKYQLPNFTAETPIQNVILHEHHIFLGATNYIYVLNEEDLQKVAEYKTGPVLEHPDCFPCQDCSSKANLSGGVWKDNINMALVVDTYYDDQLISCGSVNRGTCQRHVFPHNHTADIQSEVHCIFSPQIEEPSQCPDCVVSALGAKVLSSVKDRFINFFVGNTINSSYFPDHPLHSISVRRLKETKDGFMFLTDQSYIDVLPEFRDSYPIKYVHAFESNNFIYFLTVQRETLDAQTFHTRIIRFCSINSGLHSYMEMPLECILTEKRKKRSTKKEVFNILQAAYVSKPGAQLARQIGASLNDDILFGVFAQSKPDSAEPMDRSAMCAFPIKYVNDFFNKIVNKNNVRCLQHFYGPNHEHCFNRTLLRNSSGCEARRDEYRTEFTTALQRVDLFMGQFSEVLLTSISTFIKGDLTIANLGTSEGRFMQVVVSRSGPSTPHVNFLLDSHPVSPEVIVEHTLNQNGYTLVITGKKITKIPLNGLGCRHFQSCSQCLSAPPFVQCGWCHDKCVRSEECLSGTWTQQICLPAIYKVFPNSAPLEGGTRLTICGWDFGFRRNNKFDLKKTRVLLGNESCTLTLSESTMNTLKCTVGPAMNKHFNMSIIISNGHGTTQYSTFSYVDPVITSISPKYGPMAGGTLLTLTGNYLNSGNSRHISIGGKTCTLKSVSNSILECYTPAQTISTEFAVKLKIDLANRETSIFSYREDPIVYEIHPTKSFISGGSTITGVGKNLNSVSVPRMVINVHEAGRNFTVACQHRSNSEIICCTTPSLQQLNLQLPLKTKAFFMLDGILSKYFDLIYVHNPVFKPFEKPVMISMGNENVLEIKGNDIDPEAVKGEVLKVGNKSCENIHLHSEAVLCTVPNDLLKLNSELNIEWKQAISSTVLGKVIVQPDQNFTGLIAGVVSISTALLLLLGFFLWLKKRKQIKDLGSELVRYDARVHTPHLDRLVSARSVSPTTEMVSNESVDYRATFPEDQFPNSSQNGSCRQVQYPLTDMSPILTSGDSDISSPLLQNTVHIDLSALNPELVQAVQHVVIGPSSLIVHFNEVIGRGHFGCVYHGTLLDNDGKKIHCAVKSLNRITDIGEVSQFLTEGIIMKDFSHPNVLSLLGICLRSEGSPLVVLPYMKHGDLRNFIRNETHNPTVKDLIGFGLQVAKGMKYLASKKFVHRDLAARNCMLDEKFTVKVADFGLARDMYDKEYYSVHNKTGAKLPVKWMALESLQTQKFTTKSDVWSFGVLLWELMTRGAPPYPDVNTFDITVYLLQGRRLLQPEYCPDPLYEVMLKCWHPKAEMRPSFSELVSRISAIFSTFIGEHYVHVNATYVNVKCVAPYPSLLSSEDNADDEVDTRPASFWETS
Chain of RON (Q04912 25-1400, species assumed): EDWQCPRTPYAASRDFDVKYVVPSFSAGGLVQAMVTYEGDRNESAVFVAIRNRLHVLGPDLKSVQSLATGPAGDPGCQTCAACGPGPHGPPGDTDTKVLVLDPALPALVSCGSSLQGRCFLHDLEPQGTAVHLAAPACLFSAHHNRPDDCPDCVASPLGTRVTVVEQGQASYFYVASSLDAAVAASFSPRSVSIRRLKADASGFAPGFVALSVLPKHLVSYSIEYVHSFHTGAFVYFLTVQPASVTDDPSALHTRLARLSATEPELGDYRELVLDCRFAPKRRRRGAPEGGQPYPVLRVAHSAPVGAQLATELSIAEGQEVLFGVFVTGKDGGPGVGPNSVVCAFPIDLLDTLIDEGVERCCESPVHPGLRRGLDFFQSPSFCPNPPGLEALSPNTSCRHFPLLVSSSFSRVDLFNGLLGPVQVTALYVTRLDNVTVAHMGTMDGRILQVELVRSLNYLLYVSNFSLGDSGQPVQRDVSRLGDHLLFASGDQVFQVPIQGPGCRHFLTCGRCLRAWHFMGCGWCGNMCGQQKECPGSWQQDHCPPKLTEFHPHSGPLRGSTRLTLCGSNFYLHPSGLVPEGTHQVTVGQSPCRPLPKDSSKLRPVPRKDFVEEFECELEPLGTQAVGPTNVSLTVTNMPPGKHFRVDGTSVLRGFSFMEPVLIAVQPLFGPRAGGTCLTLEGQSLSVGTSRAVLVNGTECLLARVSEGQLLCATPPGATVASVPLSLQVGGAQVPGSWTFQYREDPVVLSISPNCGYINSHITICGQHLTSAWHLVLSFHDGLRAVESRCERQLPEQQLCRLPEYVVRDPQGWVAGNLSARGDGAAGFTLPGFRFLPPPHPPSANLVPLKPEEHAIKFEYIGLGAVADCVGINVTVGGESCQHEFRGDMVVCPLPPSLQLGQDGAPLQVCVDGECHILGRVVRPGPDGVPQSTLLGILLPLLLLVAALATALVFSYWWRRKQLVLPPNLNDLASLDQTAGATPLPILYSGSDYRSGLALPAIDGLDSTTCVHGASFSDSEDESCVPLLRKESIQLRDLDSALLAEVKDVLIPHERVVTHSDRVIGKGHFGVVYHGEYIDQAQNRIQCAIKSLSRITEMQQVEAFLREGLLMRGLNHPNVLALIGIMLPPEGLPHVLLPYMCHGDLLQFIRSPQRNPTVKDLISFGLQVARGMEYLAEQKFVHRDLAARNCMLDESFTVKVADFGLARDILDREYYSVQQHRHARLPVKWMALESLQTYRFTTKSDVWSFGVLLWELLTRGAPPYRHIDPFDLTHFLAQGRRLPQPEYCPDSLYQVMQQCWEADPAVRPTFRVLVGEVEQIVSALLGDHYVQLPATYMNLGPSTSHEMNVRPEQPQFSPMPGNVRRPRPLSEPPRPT

| IC50 (cMET) [µM] | IC50 (RON) [nM] | SMILES |
| --- | --- | --- |
| > 5 | < 50 | CCc1c(C(=O)Nc2ccc(Oc3ccnc4[nH]c(=O)n(C(C)C)c34)c(F)c2)cnn1-c1cncnc1 [Example 2, 5-ethyl-N-(3-fluoro-4-((1-isopropyl-2-oxo-2,3-dihydro-1H-imidazo[4,5-b]pyridine-7-yl)oxy)phenyl)-1-(pyrimidine-5-yl)-1H-pyrazole-4-carboxamide] |
| > 5 | < 50 | CC(C)n1c(=O)[nH]c2nccc(Oc3ccc(NC(=O)c4cnn(-c5ccccn5)c4C(F)(F)F)cc3F)c21 [Example 3, N-(3-fluoro-4-((1-isopropyl-2-oxo-2,3-dihydro-1H-imidazo[4,5-b]pyridine-7-yl)oxy)phenyl)-1-(pyridine-2-yl)-5-(trifluoromethyl)-1H-pyrazole-4-carboxamide] |
| > 5 | < 50 | CC(C)n1c(=O)[nH]c2nccc(Oc3ccc(NC(=O)c4cnn(-c5cncnc5)c4C(F)(F)F)cc3F)c21 [Example 4, N-(3-fluoro-4-((1-isopropyl-2-oxo-2,3-dihydro-1H-imidazo[4,5-b]pyridine-7-yl)oxy)phenyl)-1-(pyrimidine-5-yl)-5-(trifluoromethyl)-1H-pyrazole-4-carboxamide] |
| 0.5 to 5 | 50 to 500 | Cc1c(C(=O)Nc2ccc(Oc3ccnc4[nH]c(=O)n(C(C)C)c34)c(F)c2)cnn1-c1cncnc1 [Example 5, N-(3-fluoro-4-((1-isopropyl-2-oxo-2,3-dihydro-1H-imidazo[4,5-b]pyridine-7-yl)oxy)phenyl)-5-methyl-1-(pyrimidine-5-yl)-1H-pyrazole-4-carboxamide] |
| 0.5 to 5 | < 50 | Cc1cccnc1-n1ncc(C(=O)Nc2ccc(Oc3ccnc4[nH]c(=O)n(C(C)C)c34)c(F)c2)c1C(F)(F)F [Example 8, N-(3-fluoro-4-((1-isopropyl-2-oxo-2,3-dihydro-1H-imidazo[4,5-b]pyridine-7-yl)oxy)phenyl)-1-(3-methylpyridine-2-yl)-5-(trifluoromethyl)-1H-pyrazole-4-carboxamide] |
| > 5 | < 50 | CC(C)n1c(=O)[nH]c2nccc(Oc3ccc(NC(=O)c4cnn(-c5cc(Cl)ccn5)c4C(F)(F)F)cc3F)c21 [Example 15, 1-(4-chloropyridine-2-yl)-N-(3-fluoro-4-((1-isopropyl-2-oxo-2,3-dihydro-1H-imidazo[4,5-b]pyridine-7-yl)oxy)phenyl)-5-(trifluoromethyl)-1H-pyrazole-4-carboxamide] |

More lines, now with the values behind:

| SMILES | IC50 (cMET) [µM] | IC50 (RON) [nM] |
| --- | --- | --- |
| CCc1c(C(=O)Nc2ccc(Oc3ccnc4[nH]c(=O)[nH]c34)c(F)c2)cnn1-c1cncnc1 [Example 1, 5-ethyl-N-(3-fluoro-4-((2-oxo-2,3-dihydro-1H-imidazo[4,5-b]pyridine-7-yl)oxy)phenyl)-1-(pyrimidine-5-yl)-1H-pyrazole-4-carboxamide] | > 5 | > 5000 |
| CCc1c(C(=O)Nc2ccc(Oc3ccnc4[nH]c(=O)n(C5CCCC5)c34)c(F)c2)cnn1-c1cncnc1 [Example 6, N-(4-((1-cyclopentyl-2-oxo-2,3-dihydro-1H-imidazo[4,5-b]pyridine-7-yl)oxy)-3-fluorophenyl)-5-ethyl-1-(pyrimidine-5-yl)-1H-pyrazole-4-carboxamide] | > 5 | 50 to 500 |
| CC(C)n1c(=O)[nH]c2nccc(Oc3ccc(NC(=O)c4cnn(-c5ncccc5F)c4C(F)(F)F)cc3F)c21 [Example 7, N-(3-fluoro-4-((1-isopropyl-2-oxo-2,3-dihydro-1H-imidazo[4,5-b]pyridine-7-yl)oxy)phenyl)-1-(3-fluoropyridine-2-yl)-5-(trifluoromethyl)-1H-pyrazole-4-carboxamide] | 0.5 to 5 | < 50 |
| Cc1ccc(-n2ncc(C(=O)Nc3ccc(Oc4ccnc5[nH]c(=O)n(C(C)C)c45)c(F)c3)c2C(F)(F)F)nc1 [Example 9, N-(3-fluoro-4-((1-isopropyl-2-oxo-2,3-dihydro-1H-imidazo[4,5-b]pyridine-7-yl)oxy)phenyl)-1-(5-methylpyridine-2-yl)-5-(trifluoromethyl)-1H-pyrazole-4-carboxamide] | > 5 | 50 to 500 |
| CC(C)n1c(=O)[nH]c2nccc(Oc3ccc(NC(=O)c4cnn(-c5ncccc5Cl)c4C(F)(F)F)cc3F)c21 [Example 10, 1-(3-chloropyridine-2-yl)-N-(3-fluoro-4-((1-isopropyl-2-oxo-2,3-dihydro-1H-imidazo[4,5-b]pyridine-7-yl)oxy)phenyl)-5-(trifluoromethyl)-1H-pyrazole-4-carboxamide] | 0.5 to 5 | < 50 |
| CC(C)n1c(=O)[nH]c2nccc(Oc3ccc(NC(=O)c4cnn(-c5ccc(Cl)cn5)c4C(F)(F)F)cc3F)c21 [Example 11, 1-(5-chloropyridine-2-yl)-N-(3-fluoro-4-((1-isopropyl-2-oxo-2,3-dihydro-1H-imidazo[4,5-b]pyridine-7-yl)oxy)phenyl)-5-(trifluoromethyl)-1H-pyrazole-4-carboxamide] | > 5 | 50 to 500 |
| CC(C)n1c(=O)[nH]c2nccc(Oc3ccc(NC(=O)c4cnn(-c5ncccc5C(F)(F)F)c4C(F)(F)F)cc3F)c21 [Example 12, N-(3-fluoro-4-((1-isopropyl-2-oxo-2,3-dihydro-1H-imidazo[4,5-b]pyridine-7-yl)oxy)phenyl)-5-(trifluoromethyl)-1-(3-(trifluoromethyl)pyridine-2-yl)-1H-pyrazole-4-carboxamide] | 0.5 to 5 | < 50 |
| CC(C)n1c(=O)[nH]c2nccc(Oc3ccc(NC(=O)c4cnn(-c5ccc(C(F)(F)F)cn5)c4C(F)(F)F)cc3F)c21 [Example 13, N-(3-fluoro-4-((1-isopropyl-2-oxo-2,3-dihydro-1H-imidazo[4,5-b]pyridine-7-yl)oxy)phenyl)-5-(trifluoromethyl)-1-(5-(trifluoromethyl)pyridine-2-yl)-1H-pyrazole-4-carboxamide] | > 5 | > 5000 |
| Cc1ccnc(-n2ncc(C(=O)Nc3ccc(Oc4ccnc5[nH]c(=O)n(C(C)C)c45)c(F)c3)c2C(F)(F)F)c1 [Example 14, N-(3-fluoro-4-((1-isopropyl-2-oxo-2,3-dihydro-1H-imidazo[4,5-b]pyridine-7-yl)oxy)phenyl)-1-(4-methylpyridine-2-yl)-5-(trifluoromethyl)-1H-pyrazole-4-carboxamide] | > 5 | < 50 |
| CC(C)n1c(=O)[nH]c2nccc(Oc3ccc(NC(=O)c4cnn(-c5cc(Br)ccn5)c4C(F)(F)F)cc3F)c21 [Example 16, 1-(4-bromopyridine-2-yl)-N-(3-fluoro-4-((1-isopropyl-2-oxo-2,3-dihydro-1H-imidazo[4,5-b]pyridine-7-yl)oxy)phenyl)-5-(trifluoromethyl)-1H-pyrazole-4-carboxamide] | > 5 | < 50 |
| CC(C)n1c(=O)[nH]c2nccc(Oc3ccc(NC(=O)c4cnn(-c5cc(C(F)(F)F)ccn5)c4C(F)(F)F)cc3F)c21 [Example 17, N-(3-fluoro-4-((1-isopropyl-2-oxo-2,3-dihydro-1H-imidazo[4,5-b]pyridine-7-yl)oxy)phenyl)-5-(trifluoromethyl)-1-(4-(trifluoromethyl)pyridine-2-yl)-1H-pyrazole-4-carboxamide] | > 5 | 50 to 500 |

Source: US20240317739A1, “NOVEL UREA DERIVATIVE COMPOUND AS RON INHIBITOR” (LG CHEM, LTD., priority 2021, published 2024)
